Results on one molecule are retold here after patent US11891640B1, “Crop protection in algae by exogenous terpene expression” (priority 2021, dated 2024).

For this assay, the system named is Brachionus plicatilis (rotifers). Briefly: Cultivation assay of N. oceanica in the presence of rotifers (culture stability against predation). The class given is in vivo. The conditions noted are these: rotifer concentrations between 10-50/mL. An excerpt: FIGS. 3A-3B show culture stability in the presence of predation by rotifers. Provided are graphs showing (A) a culture including wild type Nannochloropsis oceanica (N. oceanica) exposed to increasing Brachionus plicatilis (rotifers) concentrations and (B) a transformed culture including N. oceanica strain 24N having a […]-322581 (Hypoxylon sp. CI-4A, sesquiterpene synthase) gene. Cultivation assays of N. oceanica in the presence of rotifers, which are common algae grazers and culture-crash inducing agents, indicate up to 50% increased survival of the sesquiterpene producing cultures over controls, indicating potential for algae crop-protection applications. Additional details follow. FIGS. 3A-3B show culture stability against predation.

For `C=C(C)[C@@H]1CC=C2CCC[C@@H](C)[C@]2(C)C1` [aristolochene], the predation resistance result is “significantly increased predation resistance”.
